Experimental data reported in PubChem BioAssay AID330 (DTP/NCI, 2004).
Toxic doses and inconclusive results are not listed. Peptide text beside a SMILES is read from it. * marks the point of attachment. Cbz = O=C(OCc1ccccc1)*

Test system: P388 leukemia ip, CD2F1 mice, survival T/C
Test: NCI In Vivo Anticancer Drug Screen. Data for tumor model P388 Leukemia (intraperitoneal) in CD2F1 (CDF1) mice
Details: endpoint: median survival time, higher = longer survival
Procedure, shortened: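 Mice carrying the transplanted tumor received test compound or vehicle. Survival was recorded in each group, and the value is the treated-group measurement divided by that of the vehicle-treated control group.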

[1] = dose: 50.0 mg/kg/injection, schedule: Q01DX005 (ip), vehicle: saline
[2] = dose: 100.0 mg/kg/injection, schedule: Q01DX005 (ip), vehicle: saline
[3] = dose: 50.0 mg/kg/injection, schedule: Q01DX005 (ip), vehicle: saline with Tween-80
[4] = dose: 100.0 mg/kg/injection, schedule: Q01DX005 (ip), vehicle: saline with Tween-80
[5] = dose: 200.0 mg/kg/injection, schedule: Q01DX005 (ip), vehicle: saline with Tween-80
[6] = dose: 100.0 mg/kg/injection, schedule: Q01DX009 (ip), vehicle: Klucel (hydroxypropylcellulose) (HPC)
[7] = dose: 60.0 mg/kg/injection, schedule: Q01DX005 (ip), vehicle: saline with Tween-80
[8] = dose: 120.0 mg/kg/injection, schedule: Q01DX005 (ip), vehicle: saline with Tween-80
[9] = dose: 240.0 mg/kg/injection, schedule: Q01DX005 (ip), vehicle: saline with Tween-80
[10] = dose: 50.0 mg/kg/injection, schedule: Q01DX009 (ip), vehicle: saline with Tween-80
[11] = dose: 100.0 mg/kg/injection, schedule: Q01DX009 (ip), vehicle: saline with Tween-80
[12] = dose: 50.0 mg/kg/injection, schedule: Q01DX005 (ip), vehicle: Klucel (hydroxypropylcellulose) (HPC)
[13] = dose: 100.0 mg/kg/injection, schedule: Q01DX005 (ip), vehicle: Klucel (hydroxypropylcellulose) (HPC)
[14] = dose: 200.0 mg/kg/injection, schedule: Q01DX005 (ip), vehicle: Klucel (hydroxypropylcellulose) (HPC)
[15] = dose: 25.0 mg/kg/injection, schedule: Q01DX005 (ip), vehicle: Klucel (hydroxypropylcellulose) (HPC)
[16] = dose: 50.0 mg/kg/injection, schedule: Q01DX009 (ip), vehicle: Klucel (hydroxypropylcellulose) (HPC)
[17] = dose: 200.0 mg/kg/injection, schedule: Q01DX009 (ip), vehicle: Klucel (hydroxypropylcellulose) (HPC)

For `CC1(C)CC(Nc2ccccc2)=CC(=Nc2ccccc2)S1`, the T/C (dose: 60.0 mg/kg/injection, schedule: Q01DX005 (ip), vehicle: Klucel (hydroxypropylcellulose) (HPC)) was 110 % of control, the T/C (dose: 120.0 mg/kg/injection, schedule: Q01DX005 (ip), vehicle: Klucel (hydroxypropylcellulose) (HPC)) was 92 % of control and the T/C (dose: 240.0 mg/kg/injection, schedule: Q01DX005 (ip), vehicle: Klucel (hydroxypropylcellulose) (HPC)) was 89 % of control.

With `CCN(CC)C(C)C(=O)c1ccc2cc(Br)c3ccccc3c2c1` (configuration not stated) the T/C [1] was 109 % of control and the T/C [2] was 113 % of control.

`O=C(NC(Cc1ccccc1)C(=O)N1CCCC1C(=O)O)OCc1ccccc1` (stereo not drawn) (Cbz-Phe-Pro-OH; configuration not given here) was tested, and the T/C [3] was 95 % of control, the T/C [4] was 100 % of control and the T/C [5] was 97 % of control.

In the case of `C1CCNCC1.CC(=O)[CH-]C(=O)c1ccccc1.CC(=O)[CH-]C(=O)c1ccccc1.CC(=O)[CH-]C(=O)c1ccccc1.CC(=O)[CH-]C(=O)c1ccccc1.[Eu+3]`, the T/C [6] is reported as 98 % of control.

`CC(=O)O[C@H]1CC[C@]2(C=O)[C@H]3CC[C@]4(C)[C@@H](C5=CC(=O)OC5)CC[C@]4(O)[C@@H]3CC[C@]2(O)C1` was tested, and the T/C (dose: 12.5 mg/kg/injection, schedule: Q04DX002 (ip), vehicle: saline) was 94 % of control, the T/C (dose: 25.0 mg/kg/injection, schedule: Q04DX002 (ip), vehicle: saline) was 94 % of control and the T/C (dose: 50.0 mg/kg/injection, schedule: Q04DX002 (ip), vehicle: saline) was 100 % of control. For the same molecule, the T/C (dose: 100.0 mg/kg/injection, schedule: Q04DX002 (ip), vehicle: saline) was 91 % of control.

For `[O-]/[N+]1=[N+](\[O-])c2ccccc2COCc2ccccc21`, the T/C [7] was 96 % of control, the T/C [8] was 93 % of control and the T/C [9] was 89 % of control.

`COc1cc(C)c2c(c1OC)C(=O)OC2` was tested, and the T/C (dose: 100.0 mg/kg/injection, schedule: Q04DX003 (ip), vehicle: Klucel (hydroxypropylcellulose) (HPC)) was 98 % of control, the T/C (dose: 200.0 mg/kg/injection, schedule: Q04DX003 (ip), vehicle: Klucel (hydroxypropylcellulose) (HPC)) was 97 % of control and the T/C (dose: 400.0 mg/kg/injection, schedule: Q04DX003 (ip), vehicle: Klucel (hydroxypropylcellulose) (HPC)) was 98 % of control.

With `CCC(=O)OCC(=O)[C@]1(O)Cc2c(O)c3c(c(O)c2[C@@H](OC2CC(N)C(O)C(C)O2)C1)C(=O)c1c(OC)cccc1C3=O` (some centres not stated) the T/C (dose: 0.25 mg/kg/injection, schedule: Q01DX009 (ip), vehicle: saline) was 163 % of control, the T/C (dose: 0.5 mg/kg/injection, schedule: Q01DX009 (ip), vehicle: saline sonified) was 172 % of control and the T/C (dose: 0.5 mg/kg/injection, schedule: Q01DX009 (ip), vehicle: saline) was 174 % of control. For the same molecule, the T/C (dose: 1.0 mg/kg/injection, schedule: Q01DX009 (ip), vehicle: saline sonified) was 168 % of control, the T/C (dose: 1.0 mg/kg/injection, schedule: Q01DX009 (ip), vehicle: saline) was 225 % of control and the T/C (dose: 2.0 mg/kg/injection, schedule: Q01DX009 (ip), vehicle: saline sonified) was 172 % of control. The T/C (dose: 2.0 mg/kg/injection, schedule: Q01DX009 (ip), vehicle: saline) was 252 % of control and the T/C (dose: 8.0 mg/kg/injection, schedule: Q01DX009 (ip), vehicle: saline) was 114 % of control.

In the case of `Cc1c(F)cccc1[N+](=O)[O-]`, the T/C [10] is reported as 104 % of control, the T/C [11] is reported as 114 % of control and the T/C (dose: 200.0 mg/kg/injection, schedule: Q01DX009 (ip), vehicle: saline with Tween-80) is reported as 123 % of control.

With `CCCN(CCC)c1cc(=O)nc2ccccn12` the T/C (dose: 60.0 mg/kg/injection, schedule: Q01DX005 (ip), vehicle: saline) was 100 % of control, the T/C (dose: 120.0 mg/kg/injection, schedule: Q01DX005 (ip), vehicle: saline) was 106 % of control and the T/C (dose: 240.0 mg/kg/injection, schedule: Q01DX005 (ip), vehicle: saline) was 106 % of control.

For `NC(=O)c1n[nH]c(=S)[nH]c1=O`, the T/C [12] was 102 % of control, the T/C [13] was 91 % of control and the T/C [14] was 96 % of control.

For `Cc1nc2cc3c(cc2n2cccc12)oc1ccccc13`, the T/C [15] was 88 % of control, the T/C [12] was 96 % of control and the T/C [13] was 86 % of control.

In the case of `Cc1ccc([N+](=O)[O-])cc1NC(=O)Oc1ccccc1`, the T/C (dose: 100.0 mg/kg/injection, schedule: Q01DX009 (ip), vehicle: other) is reported as 90 % of control, the T/C (dose: 200.0 mg/kg/injection, schedule: Q01DX009 (ip), vehicle: other) is reported as 110 % of control and the T/C (dose: 400.0 mg/kg/injection, schedule: Q01DX009 (ip), vehicle: other) is reported as 100 % of control.

For `CCN(CC)CCN(CC)CC.O.[Cu+2].[O-][Cl+3]([O-])([O-])O`, the T/C (dose: 3.12 mg/kg/injection, schedule: Q01DX009 (ip), vehicle: saline) was 112 % of control, the T/C (dose: 6.25 mg/kg/injection, schedule: Q01DX009 (ip), vehicle: saline) was 100 % of control and the T/C (dose: 12.5 mg/kg/injection, schedule: Q01DX009 (ip), vehicle: saline) was 114 % of control.

`COc1ccc(CCNC2=CC(=O)CC2)cc1OC` was tested, and the T/C (dose: 25.0 mg/kg/injection, schedule: Q01DX005 (ip), vehicle: saline with Tween-80) was 92 % of control, the T/C [3] was 89 % of control and the T/C [4] was 92 % of control.

In the case of `O=c1ccc2cc3ccoc3c(OCCOCCOCCOCCOc3c4occc4cc4ccc(=O)oc34)c2o1`, the T/C [3] is reported as 92 % of control, the T/C [4] is reported as 91 % of control and the T/C [5] is reported as 91 % of control.

In the case of `C=C1C2CC[C@H]3C4(C)CCCC(C)(C(=O)O)[C@H]4CCC3(C2)[C@@H]1OC(C)=O` (some centres not stated), the T/C (dose: 3.5 mg/kg/injection, schedule: Q01DX005 (ip), vehicle: Klucel (hydroxypropylcellulose) (HPC)) is reported as 108 % of control, the T/C (dose: 7.0 mg/kg/injection, schedule: Q01DX005 (ip), vehicle: Klucel (hydroxypropylcellulose) (HPC)) is reported as 97 % of control and the T/C (dose: 14.0 mg/kg/injection, schedule: Q01DX005 (ip), vehicle: Klucel (hydroxypropylcellulose) (HPC)) is reported as 100 % of control. For the same molecule, the T/C [15] was 88 % of control, the T/C (dose: 28.0 mg/kg/injection, schedule: Q01DX005 (ip), vehicle: Klucel (hydroxypropylcellulose) (HPC)) was 94 % of control and the T/C [12] was 90 % of control. For the same molecule, the T/C [13] was 90 % of control.

`O=C(O)CC1Sc2ccccc2NC1=O` (configuration not stated) was tested, and the T/C [16] was 100 % of control, the T/C [6] was 108 % of control and the T/C [17] was 108 % of control. For the same molecule, the T/C (dose: 400.0 mg/kg/injection, schedule: Q01DX009 (ip), vehicle: Klucel (hydroxypropylcellulose) (HPC)) was 100 % of control.

For `Cc1nc2cc3c(=O)n(C)cnc3cc2n1Cc1ccccc1`, the T/C (dose: 12.5 mg/kg/injection, schedule: Q04DX002 (ip), vehicle: Klucel (hydroxypropylcellulose) (HPC)) was 104 % of control, the T/C (dose: 25.0 mg/kg/injection, schedule: Q04DX002 (ip), vehicle: Klucel (hydroxypropylcellulose) (HPC)) was 104 % of control and the T/C (dose: 50.0 mg/kg/injection, schedule: Q04DX002 (ip), vehicle: Klucel (hydroxypropylcellulose) (HPC)) was 107 % of control.

For `COc1ccc2c(c1)CC/C(=C\C1(Sc3ccccc3)CC1)C2O` (configuration not stated), the T/C [3] was 102 % of control, the T/C [4] was 102 % of control and the T/C [5] was 98 % of control.

For `CC1=NN(C(=O)c2cccnc2)C(=O)C1N=Nc1ccc(S(=O)(=O)Nc2nccs2)cc1` (configuration not stated), the T/C (dose: 100.0 mg/kg/injection, schedule: Q04DX003 (ip), vehicle: saline with Tween-80) was 101 % of control, the T/C (dose: 200.0 mg/kg/injection, schedule: Q04DX003 (ip), vehicle: saline with Tween-80) was 99 % of control and the T/C (dose: 400.0 mg/kg/injection, schedule: Q04DX003 (ip), vehicle: saline with Tween-80) was 95 % of control.

`NC(=O)N(c1ccccc1)c1ccccn1` was tested, and the T/C [7] was 97 % of control, the T/C [8] was 97 % of control and the T/C [9] was 94 % of control.

For `CS/C(=C/c1ccc2ccccc2[n+]1C)N1CCCCC1`, the T/C (dose: 0.78 mg/kg/injection, schedule: Q01DX005 (ip), vehicle: saline with Tween-80) was 109 % of control and the T/C (dose: 1.56 mg/kg/injection, schedule: Q01DX005 (ip), vehicle: saline with Tween-80) was 116 % of control.

With `CCN(CC)CCOC(=O)C(c1ccccc1)C1(O)CCCCC1` (configuration not stated) the T/C [1] was 100 % of control and the T/C [2] was 107 % of control.

With `CB1NN=C(C)c2sccc21` the T/C (dose: 25.0 mg/kg/injection, schedule: Q01DX009 (ip), vehicle: saline with Tween-80) was 102 % of control, the T/C [10] was 103 % of control and the T/C [11] was 86 % of control.

In the case of `CCSc1ccc2c3c(cccc13)C(=O)N(CCc1ccccn1)C2=O`, the T/C [16] is reported as 98 % of control, the T/C [6] is reported as 99 % of control and the T/C [17] is reported as 92 % of control.

`Cn1c2cc3c(c(O)c2c(=O)c2cccnc21)C=CC(C)(C)O3` was tested, and the T/C [12] was 104 % of control, the T/C [13] was 91 % of control and the T/C [14] was 93 % of control.
